Our source for the inhibition values is patent US20080051387A1, “TETRAHYDROPYRIDO[3,4-D]PYRIMIDINES AND RELATED ANALOGUES” (priority 2006, published 2008).

Like-named read-outs stand apart in the source and are kept apart here.

In this assay the target is T1, chimeric human H3 receptor (Homo sapiens, UniProt Q9Y5N1).
T1 construct: rat Galpha-i2 (Gnai2, rat); made in house; host or cells: Sf9 insect cells (baculovirus); P2 membranes
Briefly: Chimeric human H3 receptor screening GTP binding assay (inhibition of histamine-stimulated GTP-gamma35S binding, Example 8). Format: biochemical. The method, boiled down: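 Compound tested at 4 μM against 1 μM histamine stimulation; 125 pM GTP-gamma35S binding measured by filtration and scintillation after 60 min at room temperature. Membranes from Sf9 cells expressing chimeric human H3 plus G-protein subunits, in Tris pH 7.4/NaCl/MgCl2/GDP buffer; values are % inhibition after nonspecific subtraction.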

Setting [1] is: 1 h, assay described in Example 8, symbol "!" in column headed Ki, read-out: Ki ("!": percent inhibition of agonist-induced GTP-gammaS binding to H3).
The mark [2] stands for this setting: 1 h, assay of Example 8, symbol "!" in column headed Ki, read-out: percent inhibition of agonist-induced GTP-gammaS binding to H3.
Setting [3] is: symbol ! in Ki, test compound 4 μM, 1 μM histamine, read-out: percent inhibition of agonist-induced GTP-gammaS binding to H3.

T1 sequence (Q9Y5N1 with tags, fused parts or gaps): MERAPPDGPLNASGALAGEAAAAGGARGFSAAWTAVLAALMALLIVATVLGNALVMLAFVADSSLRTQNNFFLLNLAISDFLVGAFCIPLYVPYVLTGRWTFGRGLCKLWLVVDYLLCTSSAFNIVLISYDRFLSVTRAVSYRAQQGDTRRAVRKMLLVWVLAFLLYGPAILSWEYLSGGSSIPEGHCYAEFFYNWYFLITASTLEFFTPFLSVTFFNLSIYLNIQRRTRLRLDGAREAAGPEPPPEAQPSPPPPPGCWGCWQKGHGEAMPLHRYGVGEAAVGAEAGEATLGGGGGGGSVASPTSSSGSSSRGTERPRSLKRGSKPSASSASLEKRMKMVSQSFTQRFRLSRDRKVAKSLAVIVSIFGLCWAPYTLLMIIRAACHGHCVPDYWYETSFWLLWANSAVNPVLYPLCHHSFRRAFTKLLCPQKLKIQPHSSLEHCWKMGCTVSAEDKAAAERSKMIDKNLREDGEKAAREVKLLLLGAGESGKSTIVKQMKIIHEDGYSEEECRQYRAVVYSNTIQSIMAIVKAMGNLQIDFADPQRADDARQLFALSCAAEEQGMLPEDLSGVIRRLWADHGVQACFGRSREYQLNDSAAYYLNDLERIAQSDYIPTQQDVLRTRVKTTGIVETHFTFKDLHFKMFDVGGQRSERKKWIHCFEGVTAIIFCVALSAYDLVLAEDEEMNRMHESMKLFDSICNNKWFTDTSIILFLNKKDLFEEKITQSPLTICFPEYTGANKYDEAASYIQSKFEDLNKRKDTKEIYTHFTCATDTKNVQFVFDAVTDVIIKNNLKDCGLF

Usually inhibition stands for how much of the control response was suppressed. Take `CCCc1ccc(C(=O)N2CCc3cnc(N4CCN(C5CCC5)CC4)nc3CC2)s1` [Compound 452, 2-(4-cyclobutylpiperazin-1-yl)-7-[(5-propyl-2-thienyl)carbonyl]-6,7,8,9-tetrahydro-5H-pyrimido[4,5-d]azepine]: under setting [1], the inhibition at 4 µM was not below 90%.
In the case of `O=C(Cc1ccc(F)cc1Cl)N1CCc2cnc(N3CCN(C4CCC4)CC3)nc2CC1` [Compound 302, 7-[(2-chloro-4-fluorophenyl)acetyl]-2-(4-cyclobutylpiperazin-1-yl)-6,7,8,9-tetrahydro-5H-pyrimido[4,5-d]azepine], under setting [2], the inhibition at 4 µM is not below 90%.
As for `CSc1ncc(Cl)c(C(=O)N2CCc3cnc(N4CCN(C5CCC5)CC4)nc3CC2)n1` [Compound 479, 7-{[5-chloro-2-(methylthio)pyrimidin-4-yl]carbonyl}-2-(4-cyclobutylpiperazin-1-yl)-6,7,8,9-tetrahydro-5H-pyrimido[4,5-d]azepine], the inhibition at 4 µM under setting [1] is not below 90%.
As for `c1ccc2ncc(CN3CCc4nc(N5CCN(C6CCC6)CC5)ncc4C3)cc2c1` [Compound 618, 2-(4-cyclobutylpiperazin-1-yl)-6-(quinolin-3-ylmethyl)-5,6,7,8-tetrahydropyrido[4,3-d]pyrimidine], under setting [3], the inhibition at 4 µM was not below 90%.
For `Fc1cccc(CN2CCc3nc(N4CCN(C5CCC5)CC4)ncc3C2)c1` [Compound 612, 2-(4-cyclobutylpiperazin-1-yl)-6-(3-fluorobenzyl)-5,6,7,8-tetrahydropyrido[4,3-d]pyrimidine], the inhibition at 4 µM under setting [3] is not below 90%.
Take `CCCc1c(C(=O)N2CCc3cnc(N4CCN(C5CCC5)CC4)nc3CC2)cnn1-c1ccc(Cl)cc1` [Compound 512, 7-{[1-(4-chlorophenyl)-5-propyl-1H-pyrazol-4-yl]carbonyl}-2-(4-cyclobutylpiperazin-1-yl)-6,7,8,9-tetrahydro-5H-pyrimido[4,5-d]azepine]: the inhibition at 4 µM under setting [1] was not below 90%.
As for `Cc1cccc(C(C)N2CCc3c(ncnc3N3CCN(C4CCC4)CC3)C2)n1` (centres unmarked) [Compound 110, 4-(4-cyclobutylpiperazin-1-yl)-7-[1-(6-methylpyridin-2-yl)ethyl]-5,6,7,8-tetrahydropyrido[3,4-d]pyrimidine], the inhibition at 4 µM under setting [3] is not below 90%.
`O=C(c1cccnc1Oc1ccc(Cl)cc1)N1CCc2cnc(N3CCN(C4CCC4)CC3)nc2CC1` [Compound 497]: the inhibition at 4 µM under setting [1] was not below 90%.
On to `O=C(COc1ccc(Cl)cc1Cl)N1CCc2cnc(N3CCN(C4CCC4)CC3)nc2CC1` [Compound 331, 2-(4-cyclobutylpiperazin-1-yl)-7-[(2,4-dichlorophenoxy)acetyl]-6,7,8,9-tetrahydro-5H-pyrimido[4,5-d]azepine], for which the inhibition at 4 µM under setting [2] was not below 90%.
As to `O=C(c1ccno1)N1CCc2c(ncnc2N2CCN(C3CCC3)CC2)C1` [Compound 36, 4-(4-cyclobutylpiperazin-1-yl)-7-(isoxazol-5-ylcarbonyl)-5,6,7,8-tetrahydropyrido[3,4-d]pyrimidine], the inhibition at 4 µM under setting [3] is not below 90%.
As for `CC(C)C(=O)N1CCc2cnc(N3CCN(C4CCC4)CC3)nc2CC1` [Compound 222, 2-(4-cyclobutylpiperazin-1-yl)-7-isobutyryl-6,7,8,9-tetrahydro-5H-pyrimido[4,5-d]azepine], under setting [2], the inhibition at 4 µM was not below 90%.
In the case of `Cc1ccc(C)c(C(=O)N2CCc3c(ncnc3N3CCN(C4CCC4)CC3)C2)c1` [Compound 64, 4-(4-cyclobutylpiperazin-1-yl)-7-(2,5-dimethylbenzoyl)-5,6,7,8-tetrahydropyrido[3,4-d]pyrimidine], the inhibition at 4 µM under setting [3] was not below 90%.
Take `O=C(c1ccccc1Cc1ccccc1)N1CCc2cnc(N3CCN(C4CCC4)CC3)nc2CC1` [Compound 410, 7-(2-benzylbenzoyl)-2-(4-cyclobutylpiperazin-1-yl)-6,7,8,9-tetrahydro-5H-pyrimido[4,5-d]azepine]: the inhibition at 4 µM under setting [1] is not below 90%.
The same measure, in the same setting: in the case of `Cc1cccc(C(=O)N2CCc3cnc(N4CCN(C5CCC5)CC4)nc3CC2)c1C` [Compound 403, 2-(4-cyclobutylpiperazin-1-yl)-7-(2,3-dimethylbenzoyl)-6,7,8,9-tetrahydro-5H-pyrimido[4,5-d]azepine] it was not below 90%; in that of `O=C(/C=C/c1cccc2ccccc12)N1CCc2cnc(N3CCN(C4CCC4)CC3)nc2CC1` [Compound 578, 2-(4-cyclobutylpiperazin-1-yl)-7-[(2E)-3-(1-naphthyl)prop-2-enoyl]-6,7,8,9-tetrahydro-5H-pyrimido[4,5-d]azepine], not below 90%.
On to `O=C(c1ccc(Oc2ccccc2)cc1)N1CCc2cnc(N3CCN(C4CCC4)CC3)nc2CC1` [Compound 372, 2-(4-cyclobutylpiperazin-1-yl)-7-(4-phenoxybenzoyl)-6,7,8,9-tetrahydro-5H-pyrimido[4,5-d]azepine], for which the inhibition at 4 µM under setting [2] was not below 90%.
On the same count and under the same terms, in the case of `O=C(Cc1ccccc1Oc1ccccc1)N1CCc2cnc(N3CCN(C4CCC4)CC3)nc2CC1` [Compound 304, 2-(4-cyclobutylpiperazin-1-yl)-7-[(2-phenoxyphenyl)acetyl]-6,7,8,9-tetrahydro-5H-pyrimido[4,5-d]azepine] it was not below 90%.
For the molecule `Cc1c(F)cccc1CN1CCc2c(ncnc2N2CCN(C3CCC3)CC2)C1` [Compound 97, 4-(4-cyclobutylpiperazin-1-yl)-7-(3-fluoro-2-methylbenzyl)-5,6,7,8-tetrahydropyrido[3,4-d]pyrimidine], the inhibition at 4 µM under setting [3] is not below 90%.
For the molecule `Cc1ccc(C(=O)N2CCc3cnc(N4CCN(C5CCC5)CC4)nc3CC2)cc1` [Compound 188, 2-(4-cyclobutylpiperazin-1-yl)-7-(4-methylbenzoyl)-6,7,8,9-tetrahydro-5H-pyrimido[4,5-d]azepine], the inhibition at 4 µM under setting [2] is not below 90%.
As to `Cc1cccc(C(C)N2CCc3c(ncnc3N3CCN(C4CCC4)CC3)C2)c1` (centres unmarked) [Compound 105, 4-(4-cyclobutylpiperazin-1-yl)-7-[1-(3-methylphenyl)ethyl]-5,6,7,8-tetrahydropyrido[3,4-d]pyrimidine], the inhibition at 4 µM under setting [3] is not below 90%.
`O=C(/C=C/c1ccc2c(c1)OCO2)N1CCc2cnc(N3CCN(C4CCC4)CC3)nc2CC1` [Compound 567, 7-[(2E)-3-(1,3-benzodioxol-5-yl)prop-2-enoyl]-2-(4-cyclobutylpiperazin-1-yl)-6,7,8,9-tetrahydro-5H-pyrimido[4,5-d]azepine]: the inhibition at 4 µM under setting [1] is not below 90%.
Turning to `CSc1ccc(C(=O)N2CCc3cnc(N4CCN(C5CCC5)CC4)nc3CC2)s1` [Compound 448, 2-(4-cyclobutylpiperazin-1-yl)-7-{[5-(methylthio)-2-thienyl]carbonyl}-6,7,8,9-tetrahydro-5H-pyrimido[4,5-d]azepine], under setting [1], the inhibition at 4 µM was not below 90%.
With `c1nc2c(c(N3CCN(C4CCC4)CC3)n1)CCN(Cc1ccc(N3CCOCC3)nc1)CC2` [Compound 155, 4-(4-cyclobutylpiperazin-1-yl)-7-[(6-morpholin-4-ylpyridin-3-yl)methyl]-6,7,8,9-tetrahydro-5H-pyrimido[4,5-d]azepine], the inhibition at 4 µM under setting [3] was not below 90%.
Turning to `O=C(c1cc(Cl)cc(Cl)c1)N1CCc2cnc(N3CCN(C4CCC4)CC3)nc2CC1` [Compound 398, 2-(4-cyclobutylpiperazin-1-yl)-7-(3,5-dichlorobenzoyl)-6,7,8,9-tetrahydro-5H-pyrimido[4,5-d]azepine], the inhibition at 4 µM under setting [1] is not below 90%.
On to `O=C(/C=C/c1ccccc1Br)N1CCc2cnc(N3CCN(C4CCC4)CC3)nc2CC1` [Compound 582, 7-[(2E)-3-(2-bromophenyl)prop-2-enoyl]-2-(4-cyclobutylpiperazin-1-yl)-6,7,8,9-tetrahydro-5H-pyrimido[4,5-d]azepine], for which the inhibition at 4 µM under setting [2] was not below 90%.
In the case of `Cc1nc(-c2ccc(C(F)(F)F)cc2)sc1C(=O)N1CCc2cnc(N3CCN(C4CCC4)CC3)nc2CC1` [Compound 524, 2-(4-cyclobutylpiperazin-1-yl)-7-({4-methyl-2-[4-(trifluoromethyl)phenyl]-1,3-thiazol-5-yl}carbonyl)-6,7,8,9-tetrahydro-5H-pyrimido[4,5-d]azepine], the inhibition at 4 µM under setting [1] is not below 90%.
As to `COc1ccc(C(=O)N2CCc3cnc(N4CCN(C5CCC5)CC4)nc3CC2)c(OC)n1` [Compound 542, 2-(4-cyclobutylpiperazin-1-yl)-7-[(2,6-dimethoxypyridin-3-yl)carbonyl]-6,7,8,9-tetrahydro-5H-pyrimido[4,5-d]azepine], the inhibition at 4 µM under setting [1] was not below 90%.
The same measure, in the same setting: in the case of `O=C(c1ccnc(Cl)c1)N1CCc2cnc(N3CCN(C4CCC4)CC3)nc2CC1` [Compound 483, 7-(2-chloroisonicotinoyl)-2-(4-cyclobutylpiperazin-1-yl)-6,7,8,9-tetrahydro-5H-pyrimido[4,5-d]azepine] it was not below 90%.
As to `CC(C)CN1CCc2c(ncnc2N2CCN(C3CCC3)CC2)C1` [Compound 86, 4-(4-cyclobutylpiperazin-1-yl)-7-isobutyl-5,6,7,8-tetrahydropyrido[3,4-d]pyrimidine], the inhibition at 4 µM under setting [3] was not below 90%.
On the same count and under the same terms, to `CCC(CC)CN1CCc2c(ncnc2N2CCN(C3CCC3)CC2)C1` [Compound 88, 4-(4-cyclobutylpiperazin-1-yl)-7-(2-ethylbutyl)-5,6,7,8-tetrahydropyrido[3,4-d]pyrimidine] belongs not below 90%.
As to `O=C(C1CC1)N1CCc2cnc(N3CCN(C4CCC4)CC3)nc2CC1` [Compound 215, 2-(4-cyclobutylpiperazin-1-yl)-7-(cyclopropylcarbonyl)-6,7,8,9-tetrahydro-5H-pyrimido[4,5-d]azepine], under setting [2], the inhibition at 4 µM is not below 90%.
For `COc1ccc(CC(=O)N2CCc3cnc(N4CCN(C5CCC5)CC4)nc3CC2)cc1OC` [Compound 281, 2-(4-cyclobutylpiperazin-1-yl)-7-[(3,4-dimethoxyphenyl)acetyl]-6,7,8,9-tetrahydro-5H-pyrimido[4,5-d]azepine], the inhibition at 4 µM under setting [2] was not below 90%.
